Marks after values point to notes of the source that are not given here.
How the values were obtained:
[1] = DSC of Dispersions A-J (oxaprozin or 5-methyl-5-phenylhydantoin) and pure drugs; format: physicochemical; settings: heating rate 10° C./min
Method: (§1) Thermogravimetric analysis (TGA) of Dispersions A-J was performed using a Q500 instrument from TA Instruments. The decomposition temperature (Td) at 5% was recorded for each dispersion and Td,1% was recorded for the pure drugs. Td,5% was recorded for the dispersions due to the hydrophilic properties of the surfactants, which required removal of surface moisture before the materials began to decompose. Differential Scanning Calorimetry (DSC) experiments were performed on Dispersions A-J and pure oxaprozin and 5-methyl-5-phenylhydantoin using a Discovery Series instrument from TA Instruments. Each dispersion was heated twice to Td,5%. The pure compounds were heated twice to Td,1%. The heating rate in all experiments was 10° C./min. […] These values approached the Tg value of pure surfactants (135.76° C.) as the ratio of the molecular weight of the poly(N-isopropylacrylamide) hydrophilic segment in kDa/mol to (m+1) increased. Generally, the dispersions including oxaprozin yielded lower Tg values. Without being bound by theory, the lower Tg values might be attributable to the larger size of oxaprozin, which would further disrupt surfactant packing.

[2] = TGA of Dispersions A-J (oxaprozin or 5-methyl-5-phenylhydantoin) and pure drugs; format: physicochemical; settings: pure drugs
Method: as §1

Row | First Heat Tg [1] [°C] | Td,1% [2] | Structure (SMILES)
1 | 134 | 188* ° C. | CC1(c2ccccc2)NC(=O)NC1=O (stereo not shown) [5-methyl-5-phenylhydantoin]
2 | 21 | 206* ° C. | O=C(O)CCc1nc(-c2ccccc2)c(-c2ccccc2)o1 [Oxaprozin, oxaprozin]

From patent US20190256626A1, “SURFACTANTS AND METHODS FOR MAKING SAME” (REGENTS OF THE UNIVERSITY OF MINNESOTA, priority 2016, published 2019)
